Article PMC5108082, “Pharmacokinetics, toxicity, and cytochrome P450 modulatory activity of plumbagin” (BMC Pharmacology & Toxicology, 2016)
Entries after “also recorded” stand apart in the source; their conditions may differ.

Columns and labels:
[1] = subacute toxicity test, daily oral dose for 28 days; type: in vivo, rat; conditions: both sexes, Wistar, rat, in vivo, rats, daily oral doses for 28 days
Description: (§1) Plumbagin was dissolved with 20 % Tween-80 to obtain the desired concentrations. Wistar rats were fasting 2 h before administration of a single oral dose of the plumbagin. Animals were divided into eight groups of six (3 males and 3 females for each group). For the acute toxicity test, rats in each group were fed with plumbagin at a single oral dose of 500, 250, or 150 mg/kg body weight (1 mL); control group received a single oral dose of 20 % Tween-80 (1 mL). For the subacute toxicity test, rats in each group were fed with plumbagin at a daily dose of 100, 50, or 25 mg/kg body weight (1 mL) for 28 days; control group received a daily oral dose of 20 % Tween-80 for 28 days (1 mL).
(§2) General behavioral changes of each rat was observed continuously for 1 h after each dose, intermittently every 4 h, and thereafter over a period of 24 h. […] At the end of the observation period, all animals were sacrificed under ether anesthesia (isoflurane) and vital organs (liver, lung, kidney, heart, and spleen) were removed from all animals for gross and histopathological examination. Blood sample was collected from each rat through cardiac puncture for analysis of plasma chemistry (heparin as an anticoagulant) and blood hematology (EDTA as an anticoagulant).

Wistar rats = test: as above; type: in vivo, rat
Description: as §1, §2

CYP1A2 = CYP1A2 activity (phenacetin O-deethylation) in liver microsomes of treated mice; type: in vivo, mouse; conditions: for modulation of CYP1A2 activity (paracetamol produced): mice, 25, 12.5, 6.25 mg/kg daily oral for 28 days vs control
Description: Mice were divided into four groups (3 male mice each). Mice in the treated groups were fed with plumbagin at a daily oral dose of 25, 12.5, or 6.25 mg/kg body weight (1 mL) for 28 days. The control group received a daily oral dose (1 mL) of 20 % Tween-80 for 28 days. At the end of the experiment period, all animals were sacrificed under ether anesthesia and livers were removed for investigation of the modulatory effect of plumbagin on hepatic CYP1A2 and CYP3A11.
The liver samples were rinsed with ice-cold, 0.9 %NaCl, homogenized in 50 mM sodium phosphate buffer (pH 7.4) containing 0.1 mM EDTA, and centrifuged at 9000 × g for 20 min. The supernatant was ultracentrifuged at 105,000 × g for 60 min, and the resulting microsomal pellets were suspended with ice cold 1.15 % KCl solution and ultracentrifuged at 105,000 × g for 60 min. The pellets were homogenized with 50 mM potassium phosphate (pH 7.4) containing 0.1 mM EDTA and 10 % glycerol. Protein concentrations were determined by Bradford protein assay and the suspended microsomes were aliquoted and stored at −80 °C until use.
Phenacetin O-deethylation and nifedipine oxidation were used as selective markers for CYP1A2 and CYP3A11 activities, respectively. The substrate concentration equivalent to the apparent Km (Michaelis-Menten constant) of each individual CYP450 was used in the experiment. Final concentration of organic solvent in the incubation mixture was less than 1 %. The incubation conditions for determination enzyme activity to both CYP450 isoforms were according to the previously described methods.
The incubation mixture of 500 μL containing the selective substrate (20 μM phenacetin and 40 μm nifedipine for CYP1A2 and CYP3A11, respectively), mice liver microsomes (in 100 mM phosphate buffer pH 7.4) was pre-incubated at 37 °C for 5 min in a shaking water bath. […] Concentrations of paracetamol (metabolite of CYP1A2) and oxidized nifedipine (metabolite of CYP3A11) in the incubation mixtures were determined using HPLC with UV detection. […]

[2] = test system: 3D7 chloroquine-sensitive P. falciparum; conditions: 3D7 clone; read-out: median IC50; cited from earlier work
CYP3A4 = conditions: cited from earlier work
[3] = rat, in vivo, cited from earlier work
[4] = 25 mg/kg body weight daily for 28 days
[5] = 25 mg/kg daily oral for 28 days, median (interquartile range)

CC1=CC(=O)c2c(O)cccc2C1=O [plumbagin, 5-hydroxy-2-methyl-1,4-naphthoquinone]
LD50 at 28 days ([1]; read-out: 50 % lethal dose (LD50), subacute toxicity): 50 to 100 mg/kg | MTD at 28 days ([1]; read-out: maximum tolerated dose, subacute toxicity): 25 mg/kg | behavior, signs of toxicity, water and food consumption, body weight (Wistar rats; [4]): no abnormality in behavior, sign of toxicity, nor changes in water and food consumption, as well as body weights | histopathological examination (liver, kidney, heart, spleen, lung) (Wistar rats; [4]): no significant change in size and morphology | survival (Wistar rats; [4]): all rats survived | changes in blood chemistry and hematology (Wistar rats; 25 mg/kg body weight daily for 28 days vs control): no significant changes in blood chemistry and hematology; also recorded: no significant change in hematological and blood biochemistry profiles | Blood morphology (Wistar rats; 25 mg/kg daily oral for 28 days): Normal | ALT (Wistar rats; [5]): 30 (11) U/L | AST (Wistar rats; [5]): 101 (15) U/L | BUN (Wistar rats; [5]): 22.0 (7.5) mg/dL | Cholesterol (Wistar rats; [5]): 73 (6) mg/dL | Creatinine (Wistar rats; [5]): 0.50 (0.00) mg/dL | Eosinophils (Wistar rats; [5]): 0.00 (1.00) ×10^3/μL | Glucose (Wistar rats; [5]): 230 mg/dL | Hematocrit (Wistar rats; [5]): 47.8 (2.6) % | Hemoglobin (Wistar rats; [5]): 14.4 (1.2) g/dL | Lymphocytes (Wistar rats; [5]): 7.59 (0.31) ×10^3/μL | Monocytes (Wistar rats; [5]): 0.00 (1.00) ×10^3/μL | Neutrophils (Wistar rats; [5]): 2.20 (0.63) ×10^3/μL | Platelets count (Wistar rats; [5]): 885.50 (73.75) ×10^3/μL | RBC (Wistar rats; [5]): 8.16 (0.72) ×10^6/μL | Triglyceride (Wistar rats; [5]): 110 (9) mg/dL | WBC (Wistar rats; [5]): 9.40 (0.65) ×10^3/μL | Glucose (Wistar rats; 25 mg/kg daily oral for 28 days, median (interquartile range), listed as Plumbagin): 230 (59) mg/dL | rats died (Wistar rats; 50 mg/kg body weight daily): two rats | rats with toxic signs and symptoms (Wistar rats; 50 mg/kg body weight daily): 2/6 | time to death (Wistar rats; 50 mg/kg body weight daily): 12 to 16 days | rats died (Wistar rats; 100 mg/kg body weight daily): All rats | rats with toxic signs and symptoms (Wistar rats; 100 mg/kg body weight daily): 6/6 | time to death (Wistar rats; 100 mg/kg body weight daily): 6 to 10 days | gender-specific toxicity (Wistar rats; all dose levels): No gender-specific toxicity was observed | modulation of CYP1A2 activity (paracetamol produced) (CYP1A2): no significant change; also recorded: not found to induce or inhibit | modulation of CYP1A2 activity (paracetamol produced) (CYP1A2; listed as Plumbagin): did not significantly modulate | trend of CYP1A2 activity (CYP1A2; particularly at the lowest dose level of 6.25 mg/kg body weight): tended to be reduced | IC50 [2]: 580 nM | IC50 (CYP3A4): 2370 nM | oral bioavailability ([3]; po): 39% | elimination half-life (t1/2), mean [3]: 17 h | mean residence time (MRT), mean [3]: 22 h | time to reach maximum blood concentration (tmax) [3]: 2.5 h
